# Results taken from patent US9765092B2, “Tricyclic piperidine compounds” (ACTELION PHARMACEUTICALS LTD, priority 2013, dated 2017).
# Target: human TPH1 (Homo sapiens (Human), UniProt P17752)
# Test: Biochemical in vitro assay using fluorescence readout (TPH1 inhibition)
# Settings: full length human TPH1, 40 μM L-tryptophan, 15° C., 60 minutes, fluorescence at 540 nm; mean if determined several times
# human TPH1, sequence (P17752 whole entry): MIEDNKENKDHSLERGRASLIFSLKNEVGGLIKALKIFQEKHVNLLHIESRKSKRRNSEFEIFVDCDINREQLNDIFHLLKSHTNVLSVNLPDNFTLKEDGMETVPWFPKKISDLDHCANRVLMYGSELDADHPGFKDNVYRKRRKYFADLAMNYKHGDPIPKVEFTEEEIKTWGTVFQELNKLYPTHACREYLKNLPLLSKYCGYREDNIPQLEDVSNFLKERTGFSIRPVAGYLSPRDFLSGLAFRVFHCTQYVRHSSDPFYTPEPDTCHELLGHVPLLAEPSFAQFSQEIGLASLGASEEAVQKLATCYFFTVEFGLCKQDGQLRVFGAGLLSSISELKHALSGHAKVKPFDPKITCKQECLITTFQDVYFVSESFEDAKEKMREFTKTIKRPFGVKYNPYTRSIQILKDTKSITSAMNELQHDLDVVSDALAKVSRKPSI
row,SMILES,IC50 [nM]
1,"Cc1nn2c3c(nc2s1)CCN(C(=O)COc1ccc(N2CCOCC2)nc1Cl)C3c1ccc(C(=O)N(C)C)o1 (centres unmarked) [Example 1.40.2, 5-(6-(2-((2-Chloro-6-morpholinopyridin-3-yl)oxy)acetyl)-2-methyl-5,6,7,8-tetrahydro-[1,3,4]thiadiazolo[2′,3′:2,3]imidazo[4,5-c]pyridin-5-yl)-N,N-dimethylfuran-2-carboxamide]",12
2,"Cc1nn2c3c(nc2s1)CCN(C(=O)COc1ccc(C(=O)N(C)C)nc1Cl)C3c1cnc(N(C)C)s1 (centres unmarked) [Example 1.22.9, 6-Chloro-5-(2-(5-(2-(dimethylamino)thiazol-5-yl)-2-methyl-7,8-dihydro-[1,3,4]thia-diazolo[2′,3′:2,3]imidazo[4,5-c]pyridin-6(5H)-yl)-2-oxoethoxy)-N,N-dimethylpicolinamide]",9
3,"Cc1nn2c3c(nc2s1)CCN(C(=O)COc1ccc(N2CCOCC2)nc1Cl)C3c1nc(C(N)=O)cs1 (centres unmarked) [Example 1.48.1, 2-(6-(2-((2-Chloro-6-morpholinopyridin-3-yl)oxy)acetyl)-2-methyl-5,6,7,8-tetrahydro-[1,3,4]thiadiazolo[2′,3′:2,3]imidazo[4,5-c]pyridin-5-yl)thiazole-4-carboxamide]",5
4,"Cc1nn2c3c(nc2s1)CCN(C(=O)COc1ccc(N2CCOCC2)nc1Cl)C3c1csc(C(=O)O)c1 (centres unmarked) [Example 1.38.1, 4-(6-(2-((2-Chloro-6-morpholinopyridin-3-yl)oxy)acetyl)-2-methyl-5,6,7,8-tetrahydro-[1,3,4]thiadiazolo[2′,3′:2,3]imidazo[4,5-c]pyridin-5-yl)thiophene-2-carboxylic acid]",113

# Same assay, conditions: human TPH1, fluorescence readout
row,SMILES,IC50 [nM]
1,"Cc1cnc(C2c3c(nc4sc(C)nn34)CCN2C(=O)COc2ccc(C#N)nc2Cl)c(F)c1 (centres unmarked) [Example 1.31.3, 6-chloro-5-(2-(5-(3-fluoro-5-methylpyridin-2-yl)-2-methyl-7,8-dihydro-[1,3,4]thiadiazolo[2′,3′:2,3]imidazo[4,5-c]pyridin-6(5H)-yl)-2-oxoethoxy)picolinonitrile]",36
2,CS(=O)(=O)Nc1ccc(OCC(=O)N2CCc3nc4sc(C(F)F)nn4c3[C@@H]2c2ccc(Cl)cc2F)c(Cl)n1 [Example 8.1.4],12
3,"Cc1nn2c3c(nc2s1)CCN(C(=O)COc1ccc(NS(C)(=O)=O)nc1Cl)C3c1cc(F)c(C)cc1F (centres unmarked) [Example 1.74.2, N-(6-chloro-5-(2-(5-(2,5-difluoro-4-methylphenyl)-2-methyl-7,8-dihydro-[1,3,4]thiadiazolo[2′,3′:2,3]imidazo[4,5-c]pyridin-6(5H)-yl)-2-oxoethoxy)pyridin-2-yl)methanesulfonamide]",18
4,"CCc1nc(N2CCCS2(=O)=O)ccc1OCC(=O)N1CCc2nc3sc(C)nn3c2[C@@H]1c1sc(C)nc1C [Example 1.68.8, (R)-1-(5-(2,4-dimethylthiazol-5-yl)-2-methyl-7,8-dihydro-[1,3,4]thiadiazolo[2′,3′:2,3]imidazo[4,5-c]pyridin-6(5H)-yl)-2-((6-(1,1-dioxidoisothiazolidin-2-yl)-2-ethylpyridin-3-yl)oxy)ethanone]",5
5,"CCOC(=O)c1csc(C2c3c(nc4sc(C)nn34)CCN2C(=O)COc2ccc(C(F)(F)F)cc2Cl)n1 (centres unmarked) [Example 1.27.3, ethyl 2-(6-(2-(2-chloro-4-(trifluoromethyl)phenoxy)acetyl)-2-methyl-5,6,7,8-tetrahydro-[1,3,4]thiadiazolo[2′,3′:2,3]imidazo[4,5-c]pyridin-5-yl)thiazole-4-carboxylate]",245
6,"Cc1nn2c3c(nc2s1)CCN(C(=O)COc1ccc(N2CCOCC2)cc1Cl)C3c1cnc(C2CC2)nc1C (centres unmarked) [Example 1.10.4, 2-(2-chloro-4-morpholinophenoxy)-1-(5-(2-cyclopropyl-4-methylpyrimidin-5-yl)-2-methyl-7,8-dihydro-[1,3,4]thiadiazolo [2′,3′:2,3]imidazo[4,5-c]pyridin-6(5H)-yl)ethanone]",18
7,"CCn1nc(C(=O)OC)cc1OCC(=O)N1CCc2nc3sc(C)nn3c2C1c1sccc1F (centres unmarked) [Example 1.23.12, Methyl 1-ethyl-5-(2-(5-(3-fluorothiophen-2-yl)-2-methyl-7,8-dihydro-[1,3,4]thiadiazolo[2′,3′:2,3]imidazo[4,5-c]pyridin-6(5H)-yl)-2-oxoethoxy)-1H-pyrazole-3-carboxylate]",265
8,"Cc1ncc(OCC(=O)N2CCc3nc4sc(C)nn4c3C2c2ccc(Cl)cc2F)c(C)n1 (centres unmarked) [Example 1.4.45, 1-(5-(4-chloro-2-fluorophenyl)-2-methyl-7,8-dihydro-[1,3,4]thiadiazolo[2′,3′:2,3]imidazo[4,5-c]pyridin-6(5H)-yl)-2-((2,4-dimethylpyrimidin-5-yl)oxy)ethanone]",98
9,"O=C(COc1ccc(CN2CCOCC2)cc1Cl)N1CCc2nc3sccn3c2C1c1cccnc1F (centres unmarked) [Example 6.2.1, 2-(2-chloro-4-(morpholinomethyl)phenoxy)-1-(5-(2-fluoropyridin-3-yl)-7,8-dihydrothiazolo[2′,3′:2,3]imidazo[4,5-c]pyridin-6(5H)-yl)ethanone]",12
10,"CNC(=O)c1cc(F)c(C2c3c(nc4sc(C)nn34)CCN2C(=O)COc2ccc(C(=O)N(C)C)nc2Cl)s1 (centres unmarked) [Example 1.25.4, 6-chloro-5-(2-(5-(3-fluoro-5-(methylcarbamoyl)thiophen-2-yl)-2-methyl-7,8-dihydro-[1,3,4]thiadiazolo[2′,3′:2,3]imidazo[4,5-c]pyridin-6(5H)-yl)-2-oxoethoxy)-N,N-dimethylpicolinamide]",6
11,"Cc1nn2c3c(nc2s1)CCN(C(=O)COc1ccc(N2CCOCC2)nc1Cl)C3c1cnc(N2CCOCC2)s1 (centres unmarked) [Example 1.7.2, 2-((2-chloro-6-morpholinopyridin-3-yl)oxy)-1-(2-methyl-5-(2-morpholinothiazol-5-yl)-7,8-dihydro-[1,3,4]thiadiazolo [2′,3′:2,3]imidazo[4,5-c]pyridin-6(5H)-yl)ethanone]",32
12,"COC(C)(C)c1ccc(C2c3c(nc4sc(C)nn34)CCN2C(=O)COc2ccc(NS(C)(=O)=O)nc2Cl)c(F)c1 (centres unmarked) [Example 1.81.2, N-(6-chloro-5-(2-(5-(2-fluoro-4-(2-methoxypropan-2-yl)phenyl)-2-methyl-7,8-dihydro-[1,3,4]thiadiazolo[2′,3′:2,3]imidazo[4,5-c]pyridin-6(5H)-yl)-2-oxoethoxy)pyridin-2-yl)methanesulfonamide]",132
13,"Cc1ccccc1OCC(=O)N1CCc2nc3sccn3c2C1c1cccnc1F (centres unmarked) [Example 6.2.4, 1-(5-(2-fluoropyridin-3-yl)-7,8-dihydrothiazolo[2′,3′:2,3]-imidazo[4,5-c]pyridin-6(5H)-yl)-2-(o-tolyloxy)ethanone]",266
14,"Cc1nn2c3c(nc2s1)CCN(C(=O)COc1ccc(C(=O)N(C)C)nc1Cl)C3c1ccc(F)cc1F (centres unmarked) [Example 1.55.1, 6-chloro-5-(2-(5-(2,4-difluorophenyl)-2-methyl-7,8-dihydro-[1,3,4]thiadiazolo[2′,3′:2,3]imidazo[4,5-c]pyridin-6(5H)-yl)-2-oxoethoxy)-N,N-dimethylpicolinamide]",19
15,"CCNC(=O)Nc1nc(C2c3c(nc4sc(C)nn34)CCN2C(=O)COc2ccc(N3CCOCC3)nc2Cl)cs1 (centres unmarked) [Example 1.47.1, 1-(4-(6-(2-((2-chloro-6-morpholinopyridin-3-yl)oxy)acetyl)-2-methyl-5,6,7,8-tetrahydro-[1,3,4]thiadiazolo[2′,3′:2,3]imidazo[4,5-c]pyridin-5-yl)thiazol-2-yl)-3-ethylurea]",18
16,"Cn1nc(OCC(=O)N2CCc3nc4sccn4c3C2c2cccnc2F)c(C(F)(F)F)c1Cl (centres unmarked) [Example 6.2.6, 2-((5-chloro-1-methyl-4-(trifluoromethyl)-1H-pyrazol-3-yl)oxy)-1-(5-(2-fluoropyridin-3-yl)-7,8-dihydrothiazolo[2′,3′:2,3]imidazo[4,5-c]pyridin-6(5H)-yl)ethanone]",419
17,"Cc1nn2c3c(nc2s1)CCN(C(=O)COc1ccc(F)cc1C)C3c1ccc(C2CC2)cc1F (centres unmarked) [Example 1.6.10, 1-(5-(4-cyclopropyl-2-fluorophenyl)-2-methyl-7,8-dihydro-[1,3,4]thiadiazolo[2′,3′:2,3]imidazo[4,5-c]pyridin-6(5H)-yl)-2-(4-fluoro-2-methylphenoxy)ethanone]",6
18,"Cc1nn2c3c(nc2s1)CCN(C(=O)COc1ccc(NS(C)(=O)=O)nc1Cl)C3c1sc(C(F)(F)F)nc1C (centres unmarked) [Example 1.76.1, N-(6-chloro-5-(2-(2-methyl-5-(4-methyl-2-(trifluoromethyl)thiazol-5-yl)-7,8-dihydro-[1,3,4]thiadiazolo[2′,3′:2,3]imidazo[4,5-c]pyridin-6(5H)-yl)-2-oxoethoxy)pyridin-2-yl)methanesulfonamide]",20
19,"CCc1nc(C)ccc1OCC(=O)N1CCc2nc3sc(C)nn3c2C1c1cnc(C2CC2)nc1C (centres unmarked) [Example 1.10.3, 1-(5-(2-cyclopropyl-4-methylpyrimidin-5-yl)-2-methyl-7,8-dihydro-[1,3,4]thiadiazolo[2′,3′:2,3]imidazo[4,5-c]pyridin-6(5H)-yl)-2-((2-ethyl-6-methylpyridin-3-yl)oxy)ethanone]",38
20,"Cc1nn2c3c(nc2s1)CCN(C(=O)COc1ccc(S(C)(=O)=O)nc1Cl)C3c1ccc(Cl)cc1F (centres unmarked) [Example 1.4.59, 1-(5-(4-chloro-2-fluorophenyl)-2-methyl-7,8-dihydro-[1,3,4]thiadiazolo[2′,3′:2,3]imidazo[4,5-c]pyridin-6(5H)-yl)-2-((2-chloro-6-(methylsulfonyl)pyridin-3-yl)oxy)ethan-1-one]",27
21,"Cc1nn2c3c(nc2s1)CCN(C(=O)COc1ccc(C(F)(F)F)nc1Cl)C3c1sc(C(=O)N(C)C)cc1F (centres unmarked) [Example 1.24.2, 5-(6-(2-((2-chloro-6-(trifluoromethyl)pyridin-3-yl)oxy)acetyl)-2-methyl-5,6,7,8-tetrahydro-[1,3,4]thiadiazolo [2′,3′:2,3]imidazo[4,5-c]pyridin-5-yl)-4-fluoro-N,N-dimethylthiophene-2-carboxamide]",22
22,"CCc1ncccc1OCC(=O)N1CCc2nc3sccn3c2C1c1ccc(C)cc1F (centres unmarked) [Example 6.10.2, 2-((2-ethylpyridin-3-yl)oxy)-1-(5-(2-fluoro-4-methyl-phenyl)-7,8-dihydrothiazolo[2′,3′:2,3]imidazo[4,5-c]-pyridin-6(5H)-yl)ethanone]",7
